Reference: ChEMBL document CHEMBL1121510, “Resolution, absolute configuration, and antiarrhythmic properties of the enantiomers of disopyramide, 4-(diisopropylamino)-2-(2-pyridyl)-2-phenylbutyramide” (1980)

Assays:
Oryctolagus cuniculus [1] = species on record: Oryctolagus cuniculus; assay: Antiarrhythmic activity expressed as change in effective refractory period (DeltaERP) induced in rabbit ventricle by the Enantiomeric Disopyramide Bitartrates at a concentration of 3.0x10E-6M; format: functional, Heart
Oryctolagus cuniculus [2] = species on record: Oryctolagus cuniculus; assay: Antiarrhythmic activity expressed as change in effective refractory period (DeltaERP) induced in rabbit ventricle by the Enantiomeric Disopyramide Bitartrates at a concentration of 1.5x10E-5M.; format: functional, Heart

CC(C)N(CC[C@](C(N)=O)(c1ccccc1)c1ccccn1)C(C)C [(S)-DISOPYRAMIDE]
Delta ERP (Oryctolagus cuniculus [1]): 21.8 ms
Delta ERP (Oryctolagus cuniculus [2]): 41.2 ms

CC(C)N(CC[C@@](C(N)=O)(c1ccccc1)c1ccccn1)C(C)C [DISOPIRAMIDE]
Delta ERP (Oryctolagus cuniculus [1]): 25.8 ms
Delta ERP (Oryctolagus cuniculus [2]): 50.5 ms
